The values that follow come from patent US20250171447A1, “ADENOSINE RECEPTOR ANTAGONISTS, PHARMACEUTICAL COMPOSITIONS AND THEIR USE THEREOF” (Merck Sharp & Dohme LLC, priority 2022, published 2025).

Structures are written as SMILES.

The target of this assay is human A2A adenosine receptor (Homo sapiens (Human), UniProt P29274). Briefly: A2A receptor affinity binding assay (radioligand filtration binding or SPA, [3H]SCH58261). Conditions: membranes from HEK293 or CHO cells expressing human A2A; Method (A) filtration or Method (B) SPA.
Sequence of human A2A adenosine receptor (P29274 whole entry): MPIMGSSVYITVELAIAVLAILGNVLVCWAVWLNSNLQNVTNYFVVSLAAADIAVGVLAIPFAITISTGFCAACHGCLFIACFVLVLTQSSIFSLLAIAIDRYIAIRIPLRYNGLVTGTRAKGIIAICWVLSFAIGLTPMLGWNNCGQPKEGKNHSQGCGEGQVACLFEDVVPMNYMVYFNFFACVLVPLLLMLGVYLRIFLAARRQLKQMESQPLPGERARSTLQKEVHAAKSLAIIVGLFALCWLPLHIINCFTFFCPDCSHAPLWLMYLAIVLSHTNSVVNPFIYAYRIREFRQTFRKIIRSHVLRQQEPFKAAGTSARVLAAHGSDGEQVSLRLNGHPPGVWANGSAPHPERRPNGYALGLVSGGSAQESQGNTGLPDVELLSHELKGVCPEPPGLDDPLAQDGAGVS
In turn, `COc1cccc2c1nc(N)n1nc([C@H]3C[C@H](c4ccc(C(N)C(F)(F)F)cc4)C3)nc21` (stereo partly drawn) [Ex-79, 2-{trans-3-[4-(1-amino-2,2,2-trifluoroethyl)phenyl]cyclobutyl}-7-methoxy[1,2,4]triazolo[1,5-c]quinazolin-5-amine] came in with an IC50 of 2.7 nM.

`COc1cccc2c1nc(N)n1nc([C@H]3C[C@H](c4ncc(C5(N)COC5)cc4C)C3)nc21` [Ex-124, 2-{trans-3-[5-(3-aminooxetan-3-yl)-3-methylpyridin-2-yl]cyclobutyl}-7-methoxy[1,2,4]triazolo[1,5-c]quinazolin-5-amine] yielded an IC50 of 0.4 nM.

Compound `COc1cccc2c1nc(N)n1nc([C@H]3C[C@H](c4ccc(C5(N)CC(F)(F)C5)cn4)C3)nc21` [Ex-141] returned an IC50 of 3.1 nM.

Compound `COc1cccc2c1nc(N)n1nc([C@H]3C[C@H](c4ccc(N5CCN(C)CC5)nc4)C3)nc21` [Ex-114, 7-methoxy-2-{trans-3-[6-(4-methylpiperazin-1-yl)pyridin-3-yl]cyclobutyl}[1,2,4]triazolo[1,5-c]quinazolin-5-amine] displayed an IC50 of 1.3 nM.

Turning to `COc1cccc2c1nc(N)n1nc([C@H]3C[C@@H](c4ccc(C(C)N)cn4)C3)nc21` (stereo partly drawn) [Ex-71, 2-{cis-3-[5-(1-aminoethyl)pyridin-2-yl]cyclobutyl}-7-methoxy[1,2,4]triazolo[1,5-c]quinazolin-5-amine], the IC50 amounted to 18.4 nM.

`COc1cccc2c1nc(N)n1nc([C@H]3C[C@@H](c4cnc(CN)nc4)C3)nc21` [Ex-112, 2-{(cis)-3-[2-(aminomethyl)pyrimidin-5-yl]cyclobutyl}-7-methoxy[1,2,4]triazolo[1,5-c]quinazolin-5-amine] gave an IC50 of 4.2 nM.

The compound `COc1cccc2c1nc(N)n1nc([C@H]3C[C@@H](c4ccc([C@H](N)C(F)(F)F)cn4)C3)nc21` [Ex-78, 2-(cis-3-{5-[(1S)-1-amino-2,2,2-trifluoroethyl]pyridin-2-yl}cyclobutyl)-7-methoxy[1,2,4]triazolo[1,5-c]quinazolin-5-amine] registered a 50% inhibitory concentration (IC50) of 1.9 nM.

In turn, `COc1cccc2c1nc(N)n1nc([C@H]3C[C@@H](c4ccc(C(C)(N)C(F)F)nc4)C3)nc21` (some centres unmarked) [Ex-91, 2-{(1s,3s)-3-[6-(2-amino-1,1-difluoropropan-2-yl)pyridin-3-yl]cyclobutyl}-7-methoxy[1,2,4]triazolo[1,5-c]quinazolin-5-amine] had an IC50 of 1.1 nM.

As for `COc1cccc2c1nc(N)n1nc([C@H]3C[C@@H](c4ncc(C(C)(C)N)nc4C)C3)nc21` [Ex-89, 2-((1s,3s)-3-(5-(2-aminopropan-2-yl)-3-methylpyrazin-2-yl)cyclobutyl)-7-methoxy-[1,2,4]triazolo[1,5-c]quinazolin-5-amine], the IC50 was 27.7 nM.

In turn, `COc1cccc2c1nc(N)n1nc([C@H]3C[C@H](c4ccc([C@@H](N)C(F)F)cn4)C3)nc21` (single isomer, unassigned) [Ex-106] yielded an IC50 of 4.1 nM.

In the case of `COc1cccc2c1nc(N)n1nc([C@H]3C[C@@H](c4ncc(C5(O)COC5)cc4C)C3)nc21` [Ex-119, 3-{6-[cis-3-(5-amino-7-methoxy[1,2,4]triazolo[1,5-c]quinazolin-2-yl)cyclobutyl]-5-methylpyridin-3-yl}oxetan-3-ol], the IC50 turned out to be 1.8 nM.

In turn, `COc1cccc2c1nc(N)n1nc([C@H]3C[C@@H](c4cc(C)c(C(C)(C)N)cn4)C3)nc21` [Ex-80, 2-{cis-3-[5-(2-aminopropan-2-yl)-4-methylpyridin-2-yl]cyclobutyl}-7-methoxy[1,2,4]triazolo[1,5-c]quinazolin-5-amine] returned a half-inhibitory concentration (IC50) of 4.5 nM.

Compound `COc1cccc2c1nc(N)n1nc([C@H]3C[C@H](c4ncc5c(n4)CCNC5)C3)nc21` (single isomer, unassigned) [Ex-110, 7-methoxy-2-[(trans)-3-(5,6,7,8-tetrahydropyrido[4,3-d]pyrimidin-2-yl)cyclobutyl][1,2,4]triazolo[1,5-c]quinazolin-5-amine] registered a half-inhibitory concentration (IC50) of 16.7 nM.

With `COc1cccc2c1nc(N)n1nc([C@H]3C[C@H](c4ncc(C(C)(C)N)nc4C4CC4)C3)nc21` [Ex-125, 2-((1r,3r)-3-(5-(2-aminopropan-2-yl)-3-cyclopropylpyrazin-2-yl)cyclobutyl)-7-methoxy-[1,2,4]triazolo[1,5-c]quinazolin-5-amine], the 50% inhibitory concentration (IC50) came out at 2.6 nM.

In turn, `COc1cccc2c1nc(N)n1nc([C@H]3C[C@@H](c4ccc(C(N)C(F)(F)F)cc4)C3)nc21` (single isomer, unassigned) [Ex-75, 2-{cis-3-[4-(1-amino-2,2,2-trifluoroethyl)phenyl]cyclobutyl}-7-methoxy[1,2,4]triazolo[1,5-c]quinazolin-5-amine] showed an IC50 of 0.3 nM.

Consider `COc1cccc2c1nc(N)n1nc([C@H]3C[C@@H](c4ncc(C(C)(C)N)cc4Cl)C3)nc21` (single isomer, unassigned) [Ex-88, 2-{cis-3-[5-(2-aminopropan-2-yl)-3-chloropyridin-2-yl]cyclobutyl}-7-methoxy[1,2,4]triazolo[1,5-c]quinazolin-5-amine], for which the IC50 came out at 6.6 nM.

`COc1cccc2c1nc(N)n1nc([C@H]3C[C@H](c4ccc(C(C)(N)C(F)F)nc4)C3)nc21` (some centres unmarked) [Ex-92, 2-{(1r,3r)-3-[6-(2-amino-1,1-difluoropropan-2-yl)pyridin-3-yl]cyclobutyl}-7-methoxy[1,2,4]triazolo[1,5-c]quinazolin-5-amine]: the half-maximal inhibitory concentration (IC50) was determined as 14.1 nM.

On to `COc1cccc2c1nc(N)n1nc([C@H]3C[C@H](c4ccc(CN5CCNCC5)cc4)C3)nc21` [Ex-98, 7-methoxy-2-(trans-3-{4-[(piperazin-1-yl)methyl]phenyl}cyclobutyl)[1,2,4]triazolo[1,5-c]quinazolin-5-amine], for which the IC50 amounted to 1.6 nM.

Take `COc1cccc2c1nc(N)n1nc([C@H]3C[C@H](c4ccc(C(N)C(F)F)cn4)C3)nc21` (stereo partly drawn) [Ex-73, 2-{trans-3-[5-(1-amino-2,2-difluoroethyl)pyridin-2-yl]cyclobutyl}-7-methoxy[1,2,4]triazolo[1,5-c]quinazolin-5-amine]: the half-maximal inhibitory concentration (IC50) is 4.8 nM.

In turn, `COc1cccc2c1nc(N)n1nc([C@H]3C[C@@H](c4ccc(CN5CCNCC5)cc4)C3)nc21` [Ex-97, 7-methoxy-2-(cis-3-{4-[(piperazin-1-yl)methyl]phenyl}cyclobutyl)[1,2,4]triazolo[1,5-c]quinazolin-5-amine] showed an IC50 of 0.3 nM.

The compound `COc1cccc2c1nc(N)n1nc([C@H]3C[C@@H](c4ncc5c(n4)CCNC5)C3)nc21` (single isomer, unassigned) [Ex-111, 7-methoxy-2-[(cis)-3-(5,6,7,8-tetrahydropyrido[4,3-d]pyrimidin-2-yl)cyclobutyl][1,2,4]triazolo[1,5-c]quinazolin-5-amine] yielded an IC50 of 117 nM.

`COc1cccc2c1nc(N)n1nc([C@H]3C[C@H](c4ccc([C@@]5(C(F)(F)F)CCCCN5)cc4)C3)nc21` [Ex-100, 7-methoxy-2-(trans-3-{4-[(2R)-2-(trifluoromethyl)piperidin-2-yl]phenyl}cyclobutyl)[1,2,4]triazolo[1,5-c]quinazolin-5-amine] displayed a 50% inhibitory concentration (IC50) of 3.2 nM.

In the case of `COc1cccc2c1nc(N)n1nc([C@H]3C[C@H](c4cnc(CN)nc4)C3)nc21` [Ex-113, 2-{trans-3-[2-(aminomethyl)pyrimidin-5-yl]cyclobutyl}-7-methoxy[1,2,4]triazolo[1,5-c]quinazolin-5-amine], the IC50 was found to be 2.2 nM.

On to `COc1cc(F)cc2c1nc(N)n1nc(C3CC3C(C)(C)O)nc21` (centres unmarked) [Ex-28, 2-(2-(5-amino-9-fluoro-7-methoxy-[1,2,4]triazolo[1,5-c]quinazolin-2-yl)cyclopropyl)propan-2-ol], for which the 50% inhibitory concentration (IC50) worked out at 1.5 nM.

For `COc1cccc2c1nc(N)n1nc([C@H]3C[C@@H](c4ccc([C@@]5(C(F)(F)F)CCCCN5)cc4)C3)nc21` [Ex-99, 7-methoxy-2-(cis-3-{4-[(2R)-2-(trifluoromethyl)piperidin-2-yl]phenyl}cyclobutyl)[1,2,4]triazolo[1,5-c]quinazolin-5-amine], the 50% inhibitory concentration (IC50) turned out to be 0.6 nM.

`COc1cccc2c1nc(N)n1nc(C3CC(c4ccc([C@@H](N)C(F)(F)F)nc4)C3)nc21` (stereo partly drawn) [Ex-96, 2-[(1r,3r)-3-{6-[(1R)-1-amino-2,2,2-trifluoroethyl]pyridin-3-yl}cyclobutyl]-7-methoxy[1,2,4]triazolo[1,5-c]quinazolin-5-amine] returned an IC50 of 14 nM.

Regarding `COc1cccc2c1nc(N)n1nc([C@H]3C[C@H](c4ccc([C@H](N)C(F)(F)F)cn4)C3)nc21` [Ex-77, 2-(trans-3-{5-[(1S)-1-amino-2,2,2-trifluoroethyl]pyridin-2-yl}cyclobutyl)-7-methoxy[1,2,4]triazolo[1,5-c]quinazolin-5-amine], the 50% inhibitory concentration (IC50) stood at 1.3 nM.

Consider `COc1cccc2c1nc(N)n1nc([C@H]3C[C@@H](c4ccc([C@@H](N)C(F)(F)F)cn4)C3)nc21` (single isomer, unassigned) [Ex-94], for which the IC50 was 3.8 nM.

In turn, `COc1cccc2c1nc(N)n1nc([C@H]3C[C@@H](c4cnc(C(C)(C)N)c(C)n4)C3)nc21` [Ex-122, 2-((1s,3s)-3-(5-(2-aminopropan-2-yl)-6-methylpyrazin-2-yl)cyclobutyl)-7-methoxy-[1,2,4]triazolo[1,5-c]quinazolin-5-amine] returned an IC50 of 15.9 nM.

The compound `COc1cccc2c1nc(N)n1nc([C@H]3C[C@@H](c4ncc5c(n4)CNC5)C3)nc21` (single isomer, unassigned) [Ex-109, 2-[(cis)-3-(6,7-dihydro-5H-pyrrolo[3,4-d]pyrimidin-2-yl)cyclobutyl]-7-methoxy[1,2,4]triazolo[1,5-c]quinazolin-5-amine] came in with a concentration for half-maximal inhibition (IC50) of 86.1 nM.

`COc1cccc2c1nc(N)n1nc([C@H]3C[C@@H](c4ccc(N5CCN(C)CC5)nc4)C3)nc21` [Ex-115, 7-methoxy-2-{cis-3-[6-(4-methylpiperazin-1-yl)pyridin-3-yl]cyclobutyl}[1,2,4]triazolo[1,5-c]quinazolin-5-amine] came in with a half-maximal inhibitory concentration (IC50) of 1.7 nM.

The compound `COc1cccc2c1nc(N)n1nc([C@H]3C[C@H](c4cc(C)c(C(C)(C)N)cn4)C3)nc21` [Ex-81, 2-{trans-3-[5-(2-aminopropan-2-yl)-4-methylpyridin-2-yl]cyclobutyl}-7-methoxy[1,2,4]triazolo[1,5-c]quinazolin-5-amine] had an IC50 of 4.8 nM.

By IC50 is commonly meant the point on the concentration scale where inhibition reaches its midpoint.
